Test [1] concerns H22 liver subcutaneous transplanted tumor. Briefly: Mouse model of H22 liver subcutaneous transplanted tumor. In kind it is in vivo. On the procedure:
The method was as follows:
Experimental procedure: H22 hepatoma cell suspension was adjusted to 1×10^7/mL after dilution and counting with normal saline, and 0.2 mL per mouse was inoculated on the back of the mice. After 24 hours, the mice were weighed and administered drug at a dose of 0.1 mL/10 g once a day, wherein the mice in the solvent control group and the treatment groups were administered 0.9% sodium chloride solution and the compound of the present invention, respectively, for 14 days, and the mice in the CTX group were injected intraperitoneally for 14 days. The mice were weighed after 14 days. The animals were executed and the tumor blocks were removed and weighed separately. The tumor inhibition rate was calculated according to the following formula: tumor inhibition rate (%)=(1−average tumor weight in a treatment group/average tumor weight in the solvent control group)×100%.

Another test has as its target T1, TRPC4 protein (Homo sapiens, UniProt Q9UBN4).
T1 sequence (Q9UBN4 1-977): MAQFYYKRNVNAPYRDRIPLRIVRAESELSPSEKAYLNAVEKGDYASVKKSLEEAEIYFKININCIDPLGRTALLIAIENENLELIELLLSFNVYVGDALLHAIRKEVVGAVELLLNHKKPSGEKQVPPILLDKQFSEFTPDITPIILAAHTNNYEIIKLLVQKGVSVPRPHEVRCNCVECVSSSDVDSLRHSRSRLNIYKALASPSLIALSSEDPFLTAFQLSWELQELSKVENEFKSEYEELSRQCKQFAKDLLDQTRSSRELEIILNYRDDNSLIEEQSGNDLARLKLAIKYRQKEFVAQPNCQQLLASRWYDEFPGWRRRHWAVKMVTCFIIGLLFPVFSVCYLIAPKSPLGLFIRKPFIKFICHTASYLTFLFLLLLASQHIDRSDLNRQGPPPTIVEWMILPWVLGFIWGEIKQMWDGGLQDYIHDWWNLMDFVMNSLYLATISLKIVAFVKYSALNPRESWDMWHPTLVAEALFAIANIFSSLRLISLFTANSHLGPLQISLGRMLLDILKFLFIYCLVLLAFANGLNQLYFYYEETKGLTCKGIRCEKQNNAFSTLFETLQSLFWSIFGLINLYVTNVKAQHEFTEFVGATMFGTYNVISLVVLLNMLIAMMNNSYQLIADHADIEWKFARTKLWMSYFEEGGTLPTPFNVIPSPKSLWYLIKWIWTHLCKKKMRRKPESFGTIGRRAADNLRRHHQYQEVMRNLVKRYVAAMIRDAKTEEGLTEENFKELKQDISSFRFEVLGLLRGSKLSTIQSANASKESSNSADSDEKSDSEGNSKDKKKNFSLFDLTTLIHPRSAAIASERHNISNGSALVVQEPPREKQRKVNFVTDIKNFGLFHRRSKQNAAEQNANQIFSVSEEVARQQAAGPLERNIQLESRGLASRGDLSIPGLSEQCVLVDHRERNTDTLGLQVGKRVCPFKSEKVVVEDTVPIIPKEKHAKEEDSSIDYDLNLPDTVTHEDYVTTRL
Put plainly: MST binding to TRPC4 protein. On the procedure:
Preparation and labelling of protein solution: TRPC6 protein dry powder (Alomone Labs, Israel) was prepared into a protein mother solution at a concentration of 10 μM using PBS-Buffer, and 35 μL of the protein stock solution was taken to the Buffer exchange A column, and centrifuged to obtain the Tris-removed protein. 34 μL Labelling Buffer was added to the Tris-removed protein according to the instructions of the Protein Fluorescent Labelling Kit (model L001). After mixing well, 3 μL of NT-647-NHS fluorescent dye was added and thus obtained mixture was incubated for 20 minutes. The protein-dye mixture was transferred to the purification B column, 300 μL of PBS-Buffer was added, and the target protein, i.e. fluorescent labelled protein TRPC6, was collected by centrifugation (with a final concentration of about 2 μM). 180 μL of target protein was mixed with 1620 μL of PBS-Buffer, and then 9 μl of Tween-20 were added thereto. […]
The binding ability of the compounds of the present invention (as exemplified by the compounds 1-1 and 2-1 obtained in Examples 1 and 3) for other TRPC proteins (e.g., TRPC1, TRPC3, TRPC4, TRPC5, and TRPC7) was determined using the microscale thermophoresis (MST) method. […]
The affinity of the compounds of the present invention with TRPC1, TRPC3, TRPC4, TRPC5 and TRPC7 proteins, respectively, was determined by the same method as in Example 5.

In test [1] (25 mg/kg once a day 14 days), `Cn1c(C(=O)NCCC(=O)O)cc2ccccc21` [3-[(1-methyl-1H-indole-2-carbonyl)amino]propionic acid, reference compound] gave a tumor inhibition rate of 52.8%.

On to `CC(=O)OCCCNC(=O)c1c(C=O)c2ccccc2n1C` [compound 1-1, propyl 3-[(3-formyl-1-methyl-1H-indole-2-carbonyl)amino]acetate], for which the tumor inhibition rate in test [1] (25 mg/kg once a day 14 days) is 60.5%; in test [1] (50 mg/kg once a day 14 days), 69.4%. Moreover, at TRPC4 protein, the “Kd for binding to TRPC4 protein” value is given as “cannot be measured”.

In the case of `Cn1c(C(=O)NCCCOC(=O)c2ccccc2)c(C=O)c2ccccc21` [compound 2-1], the “Kd for binding to TRPC4 protein” value on TRPC4 protein is reported as “cannot be measured”.

The values are drawn from patent US12692232B2, “Indole carboxamide compound, preparation therefor and use thereof” (NANJING RUISHUNING MEDICAL TECHNOLOGY CO., LTD., priority 2021, dated 2026).
